Results as given in ChEMBL document CHEMBL5614394, “Novel pleuromutilin derivatives conjugated with phenyl-sulfide and boron-containing moieties as potent antibacterial agents against antibiotic-resistant bacteria” (Eur J Med Chem, 2024).
≈ marks a conversion by molar mass, not a printed value. Calls of active or inactive are those of the source. No cut-off for these calls is given here.

Columns and labels:
[1] = tested on: Staphylococcus epidermidis; test: Antibacterial activity against Staphylococcus epidermidis ATCC 12228 assessed as inhibition of visible growth of bacteria incubated for 24 hrs by CLSI protocol based broth-dilution method; type: functional
[2] = tested on: Staphylococcus aureus; test: Antibacterial activity against Staphylococcus aureus ATCC 29213 assessed as inhibition of visible growth of bacteria incubated for 24 hrs by CLSI protocol based broth-dilution method; type: functional
[3] = tested on: Enterococcus faecium; test: Antibacterial activity against pleuromutilin-resistant Enterococcus faecium 18FJZ1-1 harboring (lsa(E)+) genotype assessed as inhibition of visible growth of bacteria incubated for 24 hrs by CLSI protocol based broth-dilution method; type: functional
[4] = tested on: Enterococcus faecium; test: Antibacterial activity against pleuromutilin-resistant Enterococcus faecium 18SC29-2 harboring (lsa(E)-) genotype assessed as inhibition of visible growth of bacteria incubated for 24 hrs by CLSI protocol based broth-dilution method; type: functional
[5] = tested on: Staphylococcus simulans; test: Antibacterial activity against pleuromutilin-resistant Staphylococcus simulans isolate 55-1 harboring cfr+ genotype assessed as inhibition of visible growth of bacteria incubated for 24 hrs by CLSI protocol based broth-dilution method; type: functional
[6] = tested on: Staphylococcus aureus; test: Antibacterial activity against methicillin-resistant Staphylococcus aureus J1 harboring (lsa(E)+) genotype assessed as inhibition of visible growth of bacteria incubated for 24 hrs by CLSI protocol based broth-dilution method; type: functional
[7] = tested on: Staphylococcus aureus; test: Antibacterial activity against Staphylococcus aureus ATCC 25923 assessed as inhibition of visible growth of bacteria incubated for 24 hrs by CLSI protocol based broth-dilution method; type: functional
[8] = tested on: Staphylococcus aureus; test: Antibacterial activity against methicillin-resistant Staphylococcus aureus USA 300 assessed as number of colonies with prevalence of spontaneous mutation at 4 times of MIC incubated for 48 hrs by agar dilution assay; type: functional
[9] = tested on: Staphylococcus aureus; test: Antibacterial activity against methicillin-resistant Staphylococcus aureus USA 300 assessed as inhibition of bacterial growth at 1 times of MIC measured upto 24 hrs by time-kill kinetics assay; type: functional, organism-based
[10] = Stability in mouse liver microsomes assessed as drug metabolism at 1 uM measured within 1 hrs in presence of NADPH by LC-MS analysis; type: ADME, Microsome; settings: read-out: Drug metabolism
[11] = tested on: HEK293; test: Cytotoxicity against HEK293 cells incubated for 48 hrs by MTT assay; type: toxicity, cell-based; settings: human, hek293, 48 h
[12] = tested on: Streptococcus pneumoniae; test: Antibacterial activity against penicillin resistant Streptococcus pneumoniae isolate 20-4 assessed as inhibition of visible growth of bacteria incubated for 24 hrs by CLSI protocol based broth-dilution method; type: functional
[13] = tested on: Staphylococcus aureus; test: Antibacterial activity against Staphylococcus aureus ATCC 43300 assessed as inhibition of visible growth of bacteria incubated for 24 hrs by CLSI protocol based broth-dilution method; type: functional
[14] = Stability in rat liver microsomes assessed as drug metabolism at 1 uM measured within 1 hrs in presence of NADPH by LC-MS analysis; type: ADME, Microsome; settings: read-out: Drug metabolism
[15] = tested on: Staphylococcus aureus; test: Antibacterial activity against Staphylococcus aureus USA 300 assessed as inhibition of visible growth of bacteria incubated for 24 hrs by CLSI protocol based broth-dilution method; type: functional
[16] = tested on: Streptococcus pneumoniae; test: Antibacterial activity against penicillin resistant Streptococcus pneumoniae isolate 20-2 assessed as inhibition of visible growth of bacteria incubated for 24 hrs by CLSI protocol based broth-dilution method; type: functional
[17] = tested on: Staphylococcus aureus; test: Antibacterial activity against Staphylococcus aureus ATCC 700699 assessed as inhibition of visible growth of bacteria incubated for 24 hrs by CLSI protocol based broth-dilution method; type: functional
[18] = tested on: Staphylococcus aureus; test: Antibacterial activity against methicillin resistant Staphylococcus aureus USA 300 infected in peritonitis sepsis CD-1 mouse model assessed as mouse survival rate at 40 mg/kg, iv administered as double dose with 6 hrs interval and measured after 7 days relative to control; type: functional; settings: USA 300, 168 h, time 7 day
[19] = tested on: Staphylococcus aureus; test: Antibacterial activity against methicilin-resistant Staphylococcus aureus isolate 15-2 assessed as inhibition of visible growth of bacteria incubated for 24 hrs by CLSI protocol based broth-dilution method; type: functional
[20] = tested on: Escherichia coli; test: Antibacterial activity against Escherichia coli ATCC 25922 assessed as inhibition of visible growth of bacteria incubated for 24 hrs by CLSI protocol based broth-dilution method; type: functional
[21] = tested on: Staphylococcus aureus; test: Antibacterial activity against Staphylococcus aureus ATCC 700788 assessed as inhibition of visible growth of bacteria incubated for 24 hrs by CLSI protocol based broth-dilution method; type: functional
[22] = Acute toxicity in male CD-1 mouse assessed as effect on survival at 40 mg/kg, iv administered as single dose for 7 days; type: organism-based; settings: in vivo, 168 h, time 7 day
[23] = tested on: Streptococcus pneumoniae; test: Antibacterial activity against penicillin sensitive Streptococcus pneumoniae isolate 20-1 assessed as inhibition of visible growth of bacteria incubated for 24 hrs by CLSI protocol based broth-dilution method; type: functional
[24] = tested on: Acinetobacter baumannii; test: Antibacterial activity against Acinetobacter baumannii ATCC 19606 assessed as inhibition of visible growth of bacteria incubated for 24 hrs by CLSI protocol based broth-dilution method; type: functional
[25] = tested on: Staphylococcus epidermidis; test: Antibacterial activity against methicillin-sensitive Staphylococcus epidermidis isolate 20-15 assessed as inhibition of visible growth of bacteria incubated for 24 hrs by CLSI protocol based broth-dilution method; type: functional
[26] = tested on: HUVEC; test: Cytotoxicity against HUVEC cells incubated for 48 hrs by MTT assay; type: toxicity, cell-based; settings: human
[27] = tested on: Streptococcus pneumoniae; test: Antibacterial activity against penicillin resistant Streptococcus pneumoniae isolate 20-3 assessed as inhibition of visible growth of bacteria incubated for 24 hrs by CLSI protocol based broth-dilution method; type: functional
[28] = tested on: Staphylococcus aureus; test: Bactericidal activity against methicillin-resistant Staphylococcus aureus USA 300 assessed as inhibition of bacterial growth at 8 times of MIC by time kill kinetics assay; type: functional, organism-based; settings: time <= 24.0 hrs, TDE = time-dependent effect
[29] = tested on: Streptococcus pneumoniae; test: Antibacterial activity against penicillin resistant Streptococcus pneumoniae isolate 20-1 assessed as inhibition of visible growth of bacteria incubated for 24 hrs by CLSI protocol based broth-dilution method; type: functional
[30] = tested on: Staphylococcus aureus; test: Antibacterial activity against Staphylococcus aureus ATCC 33591 assessed as inhibition of visible growth of bacteria incubated for 24 hrs by CLSI protocol based broth-dilution method; type: functional
[31] = tested on: Staphylococcus aureus; test: Antibacterial activity against methicillin resistant Staphylococcus aureus USA 300 infected in peritonitis sepsis CD-1 mouse model assessed as mouse survival rate at 40 mg/kg, iv administered as single dose and measured after 7 days relative to control; type: functional; settings: USA 300, 168 h, time 7 day
[32] = tested on: Enterococcus faecalis; test: Antibacterial activity against Enterococcus faecalis HB 24-4 assessed as inhibition of visible growth of bacteria incubated for 24 hrs by CLSI protocol based broth-dilution method; type: functional
[33] = tested on: Enterococcus faecalis; test: Antibacterial activity against Enterococcus faecalis ATCC 29212 assessed as inhibition of visible growth of bacteria incubated for 24 hrs by CLSI protocol based broth-dilution method; type: functional
[34] = tested on: Staphylococcus aureus; test: Antibacterial activity against methicillin-resistant Staphylococcus aureus USA 300 assessed as number of colonies with prevalence of spontaneous mutation at 8 times of MIC incubated for 48 hrs by agar dilution assay; type: functional
[35] = Stability in human liver microsomes assessed as drug metabolism at 1 uM measured within 1 hrs in presence of NADPH by LC-MS analysis; type: ADME, Microsome; settings: read-out: Drug metabolism
[36] = tested on: Staphylococcus epidermidis; test: Antibacterial activity against methicillin-resistant Staphylococcus epidermidis isolate 20-29 assessed as inhibition of visible growth of bacteria incubated for 24 hrs by CLSI protocol based broth-dilution method; type: functional
[37] = tested on: Staphylococcus epidermidis; test: Antibacterial activity against methicillin-resistant Staphylococcus epidermidis isolate 20-27 assessed as inhibition of visible growth of bacteria incubated for 24 hrs by CLSI protocol based broth-dilution method; type: functional
[38] = tested on: Staphylococcus epidermidis; test: Antibacterial activity against methicillin-resistant Staphylococcus epidermidis isolate 20-28 assessed as inhibition of visible growth of bacteria incubated for 24 hrs by CLSI protocol based broth-dilution method; type: functional
[39] = tested on: Staphylococcus epidermidis; test: Antibacterial activity against methicillin-resistant Staphylococcus epidermidis isolate 20-26 assessed as inhibition of visible growth of bacteria incubated for 24 hrs by CLSI protocol based broth-dilution method; type: functional

| SMILES | MIC [1] | MIC [2] | MIC [3] | MIC [4] | MIC [5] | MIC [6] | MIC [7] | metabolised at 1 h, 1 µM [10] | MIC [12] | MIC [13] | metabolised at 1 h, 1 µM [14] | MIC [15] | MIC [16] | MIC [17] | MIC [19] | MIC [20] | MIC [21] | MIC [23] | MIC [24] | MIC [25] | other results |
| --- | --- | --- | --- | --- | --- | --- | --- | --- | --- | --- | --- | --- | --- | --- | --- | --- | --- | --- | --- | --- | --- |
| C=C[C@]1(C)C[C@@H](OC(=O)CSC(C)(C)CNC(=O)c2ccc3c(c2)B(O)OC3)[C@]2(C)[C@H](C)CC[C@]3(CCC(=O)[C@H]32)[C@@H](C)[C@@H]1O | 0.063 µg/mL (≈ 0.101 µM) | 0.063 µg/mL (≈ 0.101 µM) | 8 µg/mL (≈ 12.8 µM) | 0.125 µg/mL (≈ 0.2 µM) | 2 µg/mL (≈ 3.2 µM) | 16 µg/mL (≈ 25.6 µM) | – | – | – | – | – | – | – | – | – | – | – | – | – | – | – |
| C=C[C@]1(C)C[C@@H](OC(=O)CSc2cccc(NC(=O)c3ccc4c(c3)B(O)OC4)c2)[C@]2(C)[C@H](C)CC[C@]3(CCC(=O)[C@H]32)[C@@H](C)[C@@H]1O | 0.016 µg/mL (≈ 0.0248 µM) | ≤ 0.016 µg/mL | 2 µg/mL (≈ 3.1 µM) | ≤ 0.03 µg/mL | 1 µg/mL (≈ 1.55 µM) | 4 µg/mL (≈ 6.2 µM) | ≤ 0.03 µg/mL | 67.2% | 0.06 µg/mL (≈ 0.0929 µM) | ≤ 0.03 µg/mL | 52.7% | ≤ 0.03 µg/mL | 0.06 µg/mL (≈ 0.0929 µM) | ≤ 0.03 µg/mL | ≤ 0.03 µg/mL | 32 µg/mL (≈ 49.6 µM) | ≤ 0.03 µg/mL | 0.06 µg/mL (≈ 0.0929 µM) | > 64 µg/mL | ≤ 0.03 µg/mL | Activity [8]: <4.7 10^-11No_unit; Activity [9]: Active; Activity [11]: Non-Toxic; survival at 40 mg/kg [18]: 50%; Activity [22]: Non-Toxic; Activity [26]: Non-Toxic; MIC [27]: ≤ 0.03 µg/mL; Activity [28]: Tde; MIC [29]: 0.06 µg/mL (≈ 0.0929 µM); MIC [30]: ≤ 0.03 µg/mL; survival at 40 mg/kg [31]: 17%; MIC [32]: 0.25 µg/mL (≈ 0.387 µM); MIC [33]: 1 µg/mL (≈ 1.55 µM); Activity [34]: <4.7 10^-11No_unit; metabolised at 1 h, 1 µM [35]: 51.1% |
| C=C[C@]1(C)C[C@@H](OC(=O)CS[C@@H]2CC[C@@H](N)C[C@H]2O)[C@]2(C)[C@H](C)CC[C@]3(CCC(=O)[C@H]32)[C@@H](C)[C@@H]1O [LEFAMULIN] | – | 0.25 µg/mL (≈ 0.492 µM) | – | – | – | – | ≤ 0.25 µg/mL | 41.4% | 1 µg/mL (≈ 1.97 µM) | 0.25 µg/mL (≈ 0.492 µM) | 80.2% | 0.25 µg/mL (≈ 0.492 µM) | 1 µg/mL (≈ 1.97 µM) | 0.25 µg/mL (≈ 0.492 µM) | 0.5 µg/mL (≈ 0.985 µM) | 8 µg/mL (≈ 15.8 µM) | 0.5 µg/mL (≈ 0.985 µM) | 1 µg/mL (≈ 1.97 µM) | > 64 µg/mL | 0.25 µg/mL (≈ 0.492 µM) | MIC [36]: 0.125 µg/mL (≈ 0.246 µM); MIC [37]: 0.25 µg/mL (≈ 0.492 µM); MIC [27]: 1 µg/mL (≈ 1.97 µM); MIC [38]: 0.25 µg/mL (≈ 0.492 µM); MIC [29]: 1 µg/mL (≈ 1.97 µM); MIC [30]: 0.25 µg/mL (≈ 0.492 µM); survival at 40 mg/kg [31]: 33%; MIC [32]: 2 µg/mL (≈ 3.94 µM); MIC [39]: 0.5 µg/mL (≈ 0.985 µM); MIC [33]: 32 µg/mL (≈ 63 µM); metabolised at 1 h, 1 µM [35]: 84% |
